Patent publication US7538129B2, “Diazonamide A analog” (Board of Regents, The University of Texas System, priority 2005, dated 2009)

Key:
MDA-MB-231 = assay: growth inhibition (GI50) of tumor cell lines; assay type: cell-based; conditions: MDA-MB-231, FIG. 1
Method: A number of tumor cell lines representing breast, lung, colon, ovarian and prostate cancer as well as melanoma were assayed under standard growth conditions in presence of varying amounts of diazonamide A, a hydroxylated form of Compound J, Compound J, paclitaxel and vinblastine. The results are graphed as the concentration that diminishes growth by a factor of two (GI50) in FIG. 1.

[1] = test system: MDA-MB-435 (breast) xenografts; assay: growth inhibition of MDA-MB-435 xenografts; assay type: in vivo, mice; conditions: 0.7 mg/kg, IP
HCT116 xenografts = assay: growth inhibition of HCT116 xenografts; assay type: in vivo, mice; conditions: HCT116 (colon), 0.45 mg/kg, IP
Method: Details of the preparation of murine models containing xenografts of HCT116 cells or PC-3 cells are described in the section following these examples. After the tumors were grown, therapy utilizing Compound J or paclitaxel was initiated. […] In FIG. 4A, the *'s represent control mice, the squares represent 5 mg/kg Compound J; the diamonds represent 20 mg/kg Compound J; and the slanted line represents 20 mg/kg paclitaxel.
The details of the protocol for Examples 19 and 20 are as follows:
• PC3 prostrate tumor cells and HCT116 colon tumor cells (acquired from the tumor repository Division of Cancer Treatment and Diagnosis (DCTD) of the NCI • Complete RPMI Media • RPMI (Cat# 11875-085, Invitrogen) • 10% Heat-inactivated (30′ 56° C.) Fetal Bovine Serum (Cat# 100-106, Gemini Bio-Products • 2 mM L-glutamine (Cat# 25030-081, Invitrogen) • 0.1 mM MEM Non-Essential Amino Acids Solution (Cat#11140-050, Invitrogen) • 10 U/ml Penicillin/10 μg/ml Streptomycin (Cat#15140-122, Invitrogen) • 1 mM Sodium Pyruvate (Cat#l 1360-070) • Trypsin-EDTA (Cat#25300-054, Invitrogen) • Ca^2+/Mg^2+-free Phosphate Buffered Saline, 5% dextrose in water • Cell Culture Dish 150 mm×25 mm (Cat# 430599, Coming, Inc.) • 10 and 25 ml pipets, standard pipet-aid, p200 and p1000 pipette tips and standard pipetmen • Athymic NCr-nu/nu nude mice at 6-12 weeks of age, either sex (Strain code: 01B74, NCI Frederick Animal Production Program—suppliers include Charles River Labs and Taconic Farms). Female mice of approximately 7 weeks of age were utilized for existing experiments. • Standard 1 cc tuberculin syringe, 30G½ and 25G⅝ needles (Becton Dickinson) • Falcon 5 ml tubes (Cat#352054) • 50 and 15 ml disposable plastic conical tubes (Falcon or similar vendor) • Trypan Blue Solution (0.4%) (Cat#T8154, Sigma) • Hausser phase contrast hemacytometer (Cat# 02-671-54, Fisher) • Ice bucket • Balance for weighing mice (accurate to 0.2 g) • Vernier calipers • Vivarium facility free from known pathogens (nude mice should be housed in isolation from conventional mice if possible—separate rooms or micro-isolator cages equipped with individual air flow; all animal housing, bedding, water should be autoclaved prior to use; standard irradiated mouse chow should be used; animals should be changed out of cages within laminar flow hood; investigators handling mice should be suitably garbed—disposable gown, bonnet, booties, gloves, mask) • AB-5 (Compound J) compound • Ethyl alcohol, 200 proof (Aaper, MFD 041205) • Cremaphor (Cat# C5135, Sigma) • Paclitaxel (Cat#ANP0010, Polymed Therapeutics) Procedure: • 1) Rapidly thaw PC3 or HCT116 cells (if necessary) in 37° C. water bath. Transfer contents to 9ml complete RPMI media. Spin 5′ at 1200 rpm (240 Xg). Discard media and resuspend pellet in 8 ml complete RPMI media. Plate in 100 mm×25 mm cell culture dish in 5% CO2, 37° C. humidified incubator. • 2) Allow to grow for 5-10 days, splitting (aspirate media, wash with 3-5 ml PBS, add 1 ml trypsin-EDTA, incubate 3-5′ at 37° C., add media to desired volume and transfer to multiple plates) 1:8 to 1:10 every 3-4 days as necessary to allow cells to enter phase of logarithmic growth. • 3) When cells are growing well, begin to expand to 150 mm×25 mm dishes. We use 20 ml of media in a 150 mm dish and use 2 ml of trypsin for splitting. When nearly confluent, there should be 2×10^7 cells/150 mm dish. • 4) Plan ahead to time arrival of nu/nu mice such that they can acclimate to animal facility for 1 week prior to injection of tumor cells. […] Plan to inject 10 million cells/mouse and allow for loss of cells/volume during injection process. That is, if 30 mice are to be injected, plan to harvest cells sufficient for at least 35 injections—35×10 million cells=3.5×10^8 cells. In the existing HCT116 experiment, 7.5×10^6 cells were injected per mouse. Five mice per group were utilized for AB-5 treatment and four mice per group were utilized for the control and paclitaxel treatments. […]

CC(C)[C@H](O)C(=O)N[C@H]1Cc2ccc3c(c2)[C@]24C5=C(N=C(O5)[C@H](C(C)C)NC1=O)c1nc(Cl)c(o1)-c1c(Cl)[nH]c5cccc(c15)-c1cccc2c1N[C@@H]4O3 [diazonamide A]
GI50 (concentration that diminishes growth by a factor of two) (MDA-MB-231): more effective than the remaining drugs

CC[C@]1(O)C[C@@H]2CN(CCc3c([nH]c4ccccc34)[C@@](C(=O)OC)(c3cc4c(cc3OC)N(C)[C@H]3[C@@](O)(C(=O)OC)[C@H](OC(C)=O)[C@]5(CC)C=CCN6CC[C@]43[C@@H]65)C2)C1 [vinblastine, reference compound]
GI50 (concentration that diminishes growth by a factor of two) (MDA-MB-231): more effective than the remaining drugs | #Tumor Free (day) [1]: 0/6 | #Tumor Free (day) (HCT116 xenografts): 0/5 | % Max T/C (HCT116 xenografts): 56.0% | Log10 Tumor Cell Kill (HCT116 xenografts): 0.2
